Source: US20240025907A1, “QUINAZOLINE PAN-KRas INHIBITORS” (Mirati Therapeutics, Inc., priority 2022, published 2024)
Read-outs that look alike come from different tables or passages of the source.

Experiments:
[1] = molecular target: T1, KRas^G12C (Homo sapiens, UniProt P01116, G12C); experiment: KRas TR-FRET tracer displacement binding assay, G12C; settings: 60-minute incubation
T1 construct: Biotinylated KRas (corresponding to amino acids 1-169, produced at Accelegan Inc.); biotin (biotinylated); purchased Accelegan Inc
T1 sequence (P01116 1-169 isoform P01116-2 G12C): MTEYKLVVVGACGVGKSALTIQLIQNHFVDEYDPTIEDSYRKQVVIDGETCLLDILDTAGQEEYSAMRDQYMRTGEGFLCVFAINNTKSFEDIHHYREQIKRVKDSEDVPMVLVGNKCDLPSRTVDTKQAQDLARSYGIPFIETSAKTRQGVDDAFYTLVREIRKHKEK
Experimental: (§1) KRas^WT, KRas^G12A, KRas^G12C, KRas^G12D, KRas^G12R, KRas^G12S, KRas^G12V, KRas^G13D, or KRas^Q61H was used in the assay.
(§2) The ability of a compound to bind to KRas was measured using a TR-FRET displacement assay. Biotinylated KRas (corresponding to amino acids 1-169, produced at Accelegan Inc.) was incubated with custom made Cy5 labelled tracer, terbium streptavidin (Cisbio Inc.) and compound (1% DMSO final) in buffer (50 mM HEPES, pH 7.5, 5 mM MgCl2, 0.005% Tween-20 and 1 mM DTT). After a 60-minute incubation at room temperature, the reaction was measured using a BMG LABTECH CLARIO star Plus via TR-FRET.

[2] = molecular target: T2, KRas^WT (Homo sapiens, UniProt P01116); experiment: KRas TR-FRET tracer displacement binding assay, WT; settings: 60-minute incubation
T2 construct: Biotinylated KRas (corresponding to amino acids 1-169, produced at Accelegan Inc.); biotin (biotinylated); purchased Accelegan Inc
T2 sequence (P01116 1-169 isoform P01116-2): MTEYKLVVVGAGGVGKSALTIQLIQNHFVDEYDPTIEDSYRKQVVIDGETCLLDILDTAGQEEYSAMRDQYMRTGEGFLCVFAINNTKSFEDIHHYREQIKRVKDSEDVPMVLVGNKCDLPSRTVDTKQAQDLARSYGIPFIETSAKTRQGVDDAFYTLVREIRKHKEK
Experimental: as §1, §2

[3] = molecular target: T3, KRas^G12D (Homo sapiens, UniProt P01116, G12D); experiment: KRas TR-FRET tracer displacement binding assay, G12D; settings: 60-minute incubation
T3 construct: Biotinylated KRas (corresponding to amino acids 1-169, produced at Accelegan Inc.); biotin (biotinylated); purchased Accelegan Inc
T3 sequence (P01116 1-169 isoform P01116-2 G12D): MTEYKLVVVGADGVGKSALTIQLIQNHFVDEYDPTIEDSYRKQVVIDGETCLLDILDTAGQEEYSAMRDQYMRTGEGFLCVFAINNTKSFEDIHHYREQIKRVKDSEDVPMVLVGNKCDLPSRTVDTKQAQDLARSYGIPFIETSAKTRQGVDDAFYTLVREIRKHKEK
Experimental: as §1, §2

[4] = molecular target: T4, KRas^G12V (Homo sapiens, UniProt P01116, G12V); experiment: KRas TR-FRET tracer displacement binding assay, G12V; settings: 60-minute incubation
T4 construct: Biotinylated KRas (corresponding to amino acids 1-169, produced at Accelegan Inc.); biotin (biotinylated); purchased Accelegan Inc
T4 sequence (P01116 1-169 isoform P01116-2 G12V): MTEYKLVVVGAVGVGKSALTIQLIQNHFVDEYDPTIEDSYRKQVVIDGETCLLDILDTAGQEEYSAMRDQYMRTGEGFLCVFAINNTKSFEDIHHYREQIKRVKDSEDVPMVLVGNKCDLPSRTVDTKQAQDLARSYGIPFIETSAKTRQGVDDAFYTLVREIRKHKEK
Experimental: as §1, §2

[5] = molecular target: T5, KRas^G12S (Homo sapiens, UniProt P01116, G12S); experiment: KRas TR-FRET tracer displacement binding assay, G12S; settings: 60-minute incubation
T5 construct: Biotinylated KRas (corresponding to amino acids 1-169, produced at Accelegan Inc.); biotin (biotinylated); purchased Accelegan Inc
T5 sequence (P01116 1-169 isoform P01116-2 G12S): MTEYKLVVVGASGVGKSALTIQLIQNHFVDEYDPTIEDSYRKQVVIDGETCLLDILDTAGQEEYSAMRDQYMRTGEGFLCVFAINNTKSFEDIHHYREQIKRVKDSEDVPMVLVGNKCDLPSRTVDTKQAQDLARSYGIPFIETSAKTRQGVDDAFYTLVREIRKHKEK
Experimental: as §1, §2

[6] = system: KRas-mediated Phosphorylation of ERK in AsPC-1 cells; experiment: Cisbio HTRF pERK assay, AsPC-1 cells; assay type: cell-based; settings: 3 hrs compound, read-out: Inhibition (HTRF IC50 nM) of KRas-mediated Phosphorylation of ERK, AsPC-1
[7] = system: KRas-mediated Phosphorylation of ERK in H358 cells; experiment: Cisbio HTRF pERK assay, H358 cells; assay type: cell-based; settings: H358 cells, 3 hrs compound, read-out: Inhibition (HTRF IC50 nM) of KRas-mediated Phosphorylation of ERK, H358
[8] = system: KRas-mediated Phosphorylation of ERK in H727 cells; experiment: Cisbio HTRF pERK assay, H727 cells; assay type: cell-based; settings: 3 hrs compound, read-out: Inhibition (HTRF IC50 nM) of KRas-mediated Phosphorylation of ERK, H727
[9] = system: KRas-mediated Phosphorylation of ERK in A549 cells; experiment: Cisbio HTRF pERK assay, A549 cells; assay type: cell-based; settings: A549 cells, 3 hrs compound, read-out: Inhibition (HTRF IC50 nM) of KRas-mediated Phosphorylation of ERK, A549
[10] = system: KRas-mediated Phosphorylation of ERK in HCT116 cells; experiment: Cisbio HTRF pERK assay, HCT116 cells; assay type: cell-based; settings: HCT116 cells, 3 hrs compound, read-out: Inhibition (HTRF IC50 nM) of KRas-mediated Phosphorylation of ERK, HCT116
[11] = system: KRas-mediated Phosphorylation of ERK in H460 cells; experiment: Cisbio HTRF pERK assay, H460 cells; assay type: cell-based; settings: H460 cells, 3 hrs compound, read-out: Inhibition (HTRF IC50 nM) of KRas-mediated Phosphorylation of ERK, H460
[12] = system: KRas-mediated Phosphorylation of ERK in PSN1 cells; experiment: Cisbio HTRF pERK assay, PSN1 cells; assay type: cell-based; settings: 3 hour compound, read-out: Inhibition (HTRF IC50 nM) of KRas-mediated Phosphorylation of ERK, PSN1
Experimental: Inhibition of KRas Phosphorylation of ERK (HTRF) by Exemplary Compounds of Formula (I) • Cisbio HTRF Advanced pERK Assay Catalog #64AERPEH • Cell: MKN1, PSN1 • Procedure: • Day 1: Seed 6,000 cells/well −25 μl/well in 384-well white solid bottom plate; RPM1_10% FBS.

SMILES	IC50 ([6]; Homo sapiens, ASPC1, 3 h) [nM]	IC50 ([7]; Homo sapiens, NCI-H358, 3 h) [nM]	IC50 ([8]; Homo sapiens, NCI-H727, 3 h) [nM]	IC50 ([9]; Homo sapiens, A549, 3 h) [nM]	IC50 ([10]; Homo sapiens, HCT-116, 3 h) [nM]	IC50 ([11]; Homo sapiens, NCI-H460, 3 h) [nM]	IC50 ([12]; Homo sapiens, PSN1, 3 h) [nM]	also measured
CC(Oc1nc(N(C)C)c2cc(F)c(-c3ccc(F)c4sc(N)c(C#N)c34)c(F)c2n1)C12CCCN1CCC2 (single isomer, unassigned; isomer 1) [Example 177, 2-amino-4-(4-(dimethylamino)-6,8-difluoro-2-(1-(tetrahydro-1H-pyrrolizin-7a(5H)-yl)ethoxy)quinazolin-7-yl)-7-fluorobenzo[b]thiophene-3-carbonitrile (isomer 1)]	–	–	–	–	–	–	–	IC50 [1]: 36 nM; IC50 [2]: 40 nM; IC50 [3]: 107 nM; IC50 [4]: 18 nM; IC50 [5]: 42 nM
CC(Oc1nc(N(C)C)c2cc(F)c(-c3ccc(F)c4sc(N)c(C#N)c34)c(F)c2n1)C12CCCN1CCC2 (single isomer, unassigned; isomer 2) [Example 178, 2-amino-4-(4-(dimethylamino)-6,8-difluoro-2-(1-(tetrahydro-1H-pyrrolizin-7a(5H)-yl)ethoxy)quinazolin-7-yl)-7-fluorobenzo[b]thiophene-3-carbonitrile (isomer 2)]	–	–	–	–	–	–	–	IC50 [1]: 20 nM; IC50 [2]: 17 nM; IC50 [3]: 92 nM; IC50 [4]: 10 nM; IC50 [5]: 28 nM
C=C1CN2CCC[C@@]2(COc2nc(N3CC4CCC(C3)N4)c3cc(Cl)c(-c4ccc(F)c5sc(N)c(C#N)c45)c(F)c3n2)C1 [Example 184, (R)-4-(4-((1R,5S)-3,8-diazabicyclo[3.2.1]octan-3-yl)-6-chloro-8-fluoro-2-(((S)-2-methylenetetrahydro-1H-pyrrolizin-7a(5H)-yl)methoxy)quinazolin-7-yl)-2-amino-7-fluorobenzo[b]thiophene-3-carbonitrile]	–	–	–	–	–	–	–	IC50 [6]: 1 nM; IC50 [7]: 40 nM; IC50 [8]: 610 nM; IC50 [9]: 160 nM; IC50 [10]: 39 nM; IC50 [11]: 82 nM; IC50 [12]: 701 nM
CN(C)C(=O)n1cc2c(n1)CCCN(c1nc(OC[C@@]34CCCN3C[C@H](F)C4)nc3c(F)c(-c4ccc(F)c5sc(N)c(C#N)c45)c(Cl)cc13)C2 [Example 185, 5-((R)-7-(2-amino-3-cyano-7-fluorobenzo[b]thiophen-4-yl)-6-chloro-8-fluoro-2-(((2R,7aS)-2-fluorotetrahydro-1H-pyrrolizin-7a(5H)-yl)methoxy)quinazolin-4-yl)-N,N-dimethyl-5,6,7,8-tetrahydropyrazolo[4,3-c]azepine-2(4H)-carboxamide]	–	–	–	–	–	–	–	IC50 [6]: 2 nM; IC50 [7]: 1 nM; IC50 [8]: 3 nM; IC50 [9]: 12 nM; IC50 [10]: 17 nM; IC50 [11]: 9 nM; IC50 [12]: 1800 nM
N#Cc1c(N)sc2c(F)ccc(-c3c(Cl)cc4c(N5CCCn6nc(N)cc6C5)nc(OC[C@@]56CCCN5C[C@H](F)C6)nc4c3F)c12 [Example 187, 2-amino-4-(4-(2-amino-7,8-dihydro-4H-pyrazolo[1,5-a][1,4]diazepin-5(6H)-yl)-6-chloro-8-fluoro-2-(((2R,7aS)-2-fluorotetrahydro-1H-pyrrolizin-7a(5H)-yl)methoxy)quinazolin-7-yl)-7-fluorobenzo[b]thiophene-3-carbonitrile]	41	12	148	106	176	78	1060	–

Further lines, with some results ahead:

IC50 ([6]; Homo sapiens, ASPC1, 3 h) [nM]	IC50 ([7]; Homo sapiens, NCI-H358, 3 h) [nM]	IC50 ([8]; Homo sapiens, NCI-H727, 3 h) [nM]	IC50 ([9]; Homo sapiens, A549, 3 h) [nM]	IC50 ([10]; Homo sapiens, HCT-116, 3 h) [nM]	IC50 ([11]; Homo sapiens, NCI-H460, 3 h) [nM]	IC50 ([12]; Homo sapiens, PSN1, 3 h) [nM]	SMILES	also measured
627	330	870	525	596	347	5570	N#Cc1c(N)sc2c(F)ccc(-c3c(Cl)cc4c(N5C=C(CCO)CCCC5)nc(OC[C@@]56CCCN5C[C@H](F)C6)nc4c3F)c12 [Example 190, 2-amino-4-(6-chloro-8-fluoro-2-(((2R,7aS)-2-fluorotetrahydro-1H-pyrrolizin-7a(5H)-yl)methoxy)-4-(6-(2-hydroxyethyl)-2,3,4,5-tetrahydro-1H-azepin-1-yl)quinazolin-7-yl)-7-fluorobenzo[b]thiophene-3-carbonitrile]	–
8	2	12	11	11	10	798	N#Cc1c(N)sc2c(F)ccc(-c3c(Cl)cc4c(N5CCCCC(=O)C5)nc(OC[C@@]56CCCN5C[C@H](F)C6)nc4c3F)c12 [Example 191, 2-amino-4-(6-chloro-8-fluoro-2-(((2R,7aS)-2-fluorotetrahydro-1H-pyrrolizin-7a(5H)-yl)methoxy)-4-(3-oxoazepan-1-yl)quinazolin-7-yl)-7-fluorobenzo[b]thiophene-3-carbonitrile]	–
4200	232	4090	1180	889	462	3860	N#Cc1c(N)sc2c(F)ccc(-c3c(Cl)cc4c(NCc5cn[nH]c5)nc(OC[C@@]56CCCN5C[C@H](F)C6)nc4c3F)c12 [Example 199, 4-(4-(((1H-pyrazol-4-yl)methyl)amino)-6-chloro-8-fluoro-2-(((2R,7aS)-2-fluorotetrahydro-1H-pyrrolizin-7a(5H)-yl)methoxy)quinazolin-7-yl)-2-amino-7-fluorobenzo[b]thiophene-3-carbonitrile]	–
501	82	226	307	661	306	4790	CN(c1nc(OC[C@@]23CCCN2C[C@H](F)C3)nc2c(F)c(-c3ccc(F)c4sc(N)c(C#N)c34)c(Cl)cc12)C1CC1 [Example 203, 2-amino-4-(6-chloro-4-(cyclopropyl(methyl)amino)-8-fluoro-2-(((2R,7aS)-2-fluorotetrahydro-1H-pyrrolizin-7a(5H)-yl)methoxy)quinazolin-7-yl)-7-fluorobenzo[b]thiophene-3-carbonitrile]	–
1740	71	554	574	985	690	7120	N#Cc1c(N)sc2c(F)ccc(-c3c(Cl)cc4c(NCCO)nc(OC[C@@]56CCCN5C[C@H](F)C6)nc4c3F)c12 [Example 205, 2-amino-4-(6-chloro-8-fluoro-2-(((2R,7aS)-2-fluorotetrahydro-1H-pyrrolizin-7a(5H)-yl)methoxy)-4-((2-hydroxyethyl)amino)quinazolin-7-yl)-7-fluorobenzo[b]thiophene-3-carbonitrile]	–
246	60	55	244	367	173	4890	N#Cc1c(N)sc2c(F)ccc(-c3c(Cl)cc4c(N5CCC5)nc(OC[C@@]56CCCN5C[C@H](F)C6)nc4c3F)c12 [Example 206, 2-amino-4-(4-(azetidin-1-yl)-6-chloro-8-fluoro-2-(((2R,7aS)-2-fluorotetrahydro-1H-pyrrolizin-7a(5H)-yl)methoxy)quinazolin-7-yl)-7-fluorobenzo[b]thiophene-3-carbonitrile]	–
